Experimental data taken from patent EP4725551A1, “FUSION POLYPEPTIDE AJ007 AND USE THEREOF” (Nanjing Anji Biotechnology Co., Ltd., priority 2023, dated 2026).
Read-outs that look alike come from different tables or passages of the source. Residues, ends and D or L forms follow the SMILES beside them.

What was measured:
[1] = Ocular tissue distribution at equimolar concentration after eye dropping or intravitreal injection, ELISA (Example 5); assay type: in vivo, C57BL/6J mice; conditions: for active molecules that can reach the RPE/choroid complex: 5 µL per eye; for active molecules that can reach the RPE/choroid complex / maintenance time at the RPE/choroid complex: equimolar concentration
Protocol: Experimental process: All the mice in the eye drop groups were administered bilateral eye drops 1 time, with 5 µL of the corresponding drug solution in each eye. At the 6 time points of 0 h, 1 h, 3 h, 7 h, 12 h, and 24 h after the completion of administration, the mice in the corresponding groups were respectively subjected to eyeball removal and blood collection, the collected whole blood was immediately centrifuged at 6,000 rpm for 5 minutes, and then, a supernatant was sucked and stored as a sample to be tested. Additionally, 3 tissue sites, namely the vitreous body, the retina, and the RPE/choroid complex, were isolated from an eyeball under a stereomicroscope, into which a phosphate buffer solution (PBS) was added at 1:10 for dilution, followed by grinding and centrifugation at 12,000 rpm for 5 minutes. A supernatant was sucked to serve as a sample to be tested. Subsequently, the concentration of the fusion polypeptide AJ007 or the multifunctional fusion polypeptide VI (HM-1) in each tissue was detected by an enzyme-linked immunosorbent assay (ELISA) method. The ELISA method is as follows: • (1) coating: diluting HM-1 with a certain concentration of a coating solution (CBS) to 1 µg/mL, adding the diluted solution into a microplate at 100 µL per well, and standing overnight at 4°C; • (2) plate washing: discarding the coating solution, adding 265 µL of a PBST washing solution to each well, washing 3 times for 3 minutes each time, and beating to dryness; • (3) blocking: adding 200 µL of a 1% BSA blocking solution to each well, placing the solution in a water bath at 37°C for 1.5 hours, repeating the plate washing process, and beating to dryness; • (4) addition of a sample to be tested and an antibody: first, adding 100 µL of the sample to be tested to a microplate, then adding 100 µL of an HM-1 monoclonal antibody dilution solution at a certain concentration, setting 2-3 replicate wells, shaking uniformly on a shaker at 37°C for 2 minutes, then transferring the mixture to a water bath pot for placement at 37°C for 2 hours, taking out the mixture after a thorough reaction, and repeating the plate washing process; • (5) reaction with an enzyme-labeled secondary antibody: adding a certain concentration of HRP enzyme-labeled goat anti-mouse IgG at 100 µL per well for incubation at 37°C for 1.5 hours, repeating the plate washing process, and beating to dryness; • (6) addition of a substrate: adding 100 µL of a TMB substrate chromogenic solution to each well for color development at room temperature in the dark for a certain period of time; • (7) termination: adding 50 µL of a termination solution to each well to terminate the reaction; and • (8) detection: reading an OD value of each well at 450 nm using a microplate reader.
This example provides an ocular tissue distribution comparison experiment of the polypeptide eye drops (AJ007 eye drops) in Example 2 with an equimolar concentration of the multifunctional fusion polypeptide VI (HM-1), a multifunctional fusion polypeptide VI preparation (HM-1 preparation, with a polypeptide being HM-1 and a formulation of other auxiliary materials being the same as the AJ007 eye drops), a fusion polypeptide AJ007 preparation (TAT-HM-1, with a polypeptide being AJ007 and pure water as a vehicle) after eye dropping, and the multifunctional fusion polypeptide VI (HM-1) after intravitreal injection, which is specifically described below.
Animal grouping: […] C57BL/6J mice were randomly divided into a total of 7 time point groups, including 0 h, 10 min, 1 h, 3 h, 7 h, 12 h, and 24 h, with 2 mice in each group.
Experimental process: All the mice in the eye drop administration groups were administered bilateral eye drops 1 time, with 5 µL of a corresponding drug solution dropped into each eye, while 5 µL of a corresponding drug solution was injected into both eyes in the HM-1 intravitreal injection group. […]

[2] = cited from earlier work

C[C@H](NC(=O)CNC(=O)[C@H](CCCNC(=N)N)NC(=O)[C@H](CCCNC(=N)N)NC(=O)[C@H](CCCNC(=N)N)NC(=O)[C@H](CCCNC(=N)N)NC(=O)[C@H](CCC(N)=O)NC(=O)[C@H](CCCNC(=N)N)NC(=O)[C@H](CCCNC(=N)N)NC(=O)[C@H](CCCCN)NC(=O)[C@H](CCCCN)NC(=O)[C@H](CCCNC(=N)N)NC(=O)CNC(=O)[C@@H](N)Cc1ccc(O)cc1)C(=O)N[C@@H](CC(=O)O)C(=O)N[C@@H](CCCNC(=N)N)C(=O)N[C@@H](C)C(=O)NCC(=O)NCC(=O)NCC(=O)NCC(=O)N[C@@H](CCCNC(=N)N)C(=O)NCC(=O)N[C@@H](CC(=O)O)C(=O)O [AJ007] (H-YGRKKRRQRRRRGADRAGGGGRGD-OH)
ability to penetrate through the posterior segment of ocular, increase compared with HM-1 ([1]; eye dropping): approximately 600 times | active molecules that can reach the RPE/choroid complex ([1]; single eye dropping): 6291.38 ng/mL | active molecules that can reach the RPE/choroid complex ([1]; single eye dropping, listed as TAT-HM-1): 843.28 ng/mL | maintenance time at the RPE/choroid complex ([1]; single eye dropping): the maintenance time is also shorter

axitinib
concentration reaching the retina after eye dropping, increase ([2]; in vivo): 5-10 times

ranibizumab
concentration reaching the retina after eye dropping, increase ([2]; after linking to a cell-penetrating peptide, patents CN114073774A, CN114668717A): approximately 100 times

bevacizumab
ability to penetrate through and enter the posterior segment of the eye after eye dropping, increase ([2]; after linking to a cell-penetrating peptide CPP): approximately 10 times

C[C@H](NC(=O)CNC(=O)[C@@H](N)CCCNC(=N)N)C(=O)N[C@@H](CC(=O)O)C(=O)N[C@@H](CCCNC(=N)N)C(=O)N[C@@H](C)C(=O)NCC(=O)NCC(=O)NCC(=O)NCC(=O)N[C@@H](CCCNC(=N)N)C(=O)NCC(=O)N[C@@H](CC(=O)O)C(=O)O [HM-1, Arg-Gly-Ala-Asp-Arg-Ala-Gly-Gly-Gly-Gly-Arg-Gly-Asp] (H-RGADRAGGGGRGD-OH)
active molecules that can reach the RPE/choroid complex ([1]; intravitreal injection): approximately 5729.7 ng/mL | maintenance time at the RPE/choroid complex ([1]; intravitreal injection): the maintenance time is shorter | active molecules that can reach the RPE/choroid complex ([1]; single eye dropping): less than 10 ng/mL | maintenance time at the RPE/choroid complex ([1]; single eye dropping): very short
